Results published in patent US5545618A, “GLP-1 analogs useful for diabetes treatment” (priority 1993, dated 1996).
Where two headings read alike, the source gives them in different places. Where no end group is shown, it is not given here.

Key:
[1] = system: RIN 1046-38 cells
Procedure: An additional test for potency of the compounds of the invention measures their ability to stimulate cAMP production in RIN 1046-38 cells. This assay can be conducted as follows:
On day 1, 5×10^5 RIN 1046-38 cells (Drucker, D. J., et al., Proc Natl Acad Sci USA (1987) 84:3434-3438) are seeded into individual wells of 6-well dishes with 2.5 mL M199 culture medium. On day 4, cells are re-fed with fresh medium and on day 5 the assay is performed. […] Assays are only performed on cell passage ≤24.
At time -60 min, monolayers are washed twice with 2.5 mL PBS, and medium is changed to 1.0 mL of DMEM medium plus 4.5 g/l glucose and 0.1% BSA (assay medium). At 0 time, medium is aspirated and fresh assay medium, 1.0 mL, containing test compound is added. Test compound is added in 50 ul volume of PBS plus 0.1% BSA; controls are added in vehicle alone. Incubation is continued for 0 to 60 min.
At termination, conditioned medium and monolayer are harvested to measure both extra- and intracellular cAMP content. For extracellular measurement, medium is removed and centrifuged to remove any cellular debris. For intracellular determination, after medium removal, 1.0 mL of ice cold 95% ethanol is added to monolayer. Cells are collected by scraping, lysed by two cycles of quick freeze/thawing using liquid N2, and cell debris then removed by centrifugation. Aliquots (1/40th well content) of conditioned medium and ethanol cell extract are measured in duplicate for cAMP levels using an RIA kit by the acetylated protocol.
Insulin secretion can also be measured by the method described by Holst, J. J., et al. FEBS Letters (1987) 211:169-174 (supra). Also useful as an assay for insulinotropic effect is the measurement of stimulation of adenylate cyclase in the RIN 1046-38 cell line. Drucker, D. J. et al., Proc Natl Acad Sci USA (1987) 84:3434-3438 (supra).

[2] = degradation in plasma by RP-HPLC; format: in vitro ADME; details: incubation in plasma for 60 minutes; further: key: +: degradation was not observed; -: was complete after this time
Procedure: In this assay, the analog is added to plasma for various times and recovered similarly to the method described above for radiolabel sequencing analysis. Specifically, the analog at a concentration of 100 nM in RIA buffer is spiked into 1 mL plasma to a final concentration of 1 nM and after incubation in 37° C. circulating water bath for various preset times, the reaction is stopped by bringing the plasma to 0.1% (w/v) in bacitracin.
The peptides are then purified by Sep-Pak extraction as described above. The eluates are concentrated to about 1 mL on a Speed-vac, diluted with 1 mL distilled water, frozen at 80° C. and lyophilized overnight. The powder is resuspended in 0.5 mL Buffer C (0.1% TFA in water) per mL starting plasma and 0.25 mL are injected on a Hewlett-Packard 109OL liquid chromatograph using an Alltech C18 column (0.45×25 cm; 10 μm particle size) with a Brownlee 2 cm C18 guard column. The extraction is monitored at OD214 throughout the run and the solvent flow rate was 1 mL/minute. A gradient between Buffer C and Buffer D (0.1% TFA in acetonitrile) is set up over a 40 minute run time. The gradient starts at 35% D is held for the first 2 minutes after injection and then increased to 42% D over 24 minutes. The gradient is then increased to 60% D over the next two minutes, held at this level for 2 minutes and returned to 35% D over the next 2 minutes. The % D remains at 35% for the remaining 8 minutes of the run. Fractions are collected at 0.5 minute intervals for the first 30 minutes of each run and dried in a Speed-vac.

| Compound | Resistance to Degradation [2] | ED50 nM Duplicate Assays (first value) [1] | ED50 nM Duplicate Assays (second value) [1] | also measured |
| --- | --- | --- | --- | --- |
| CC[C@H](C)[C@H](NC(=O)[C@H](Cc1ccccc1)NC(=O)[C@H](CCC(=O)O)NC(=O)[C@H](CCCCN)NC(=O)[C@H](C)NC(=O)[C@H](C)NC(=O)[C@H](CCC(N)=O)NC(=O)CNC(=O)[C@H](CCC(=O)O)NC(=O)[C@H](CC(C)C)NC(=O)[C@H](Cc1ccc(O)cc1)NC(=O)[C@H](CO)NC(=O)[C@H](CO)NC(=O)[C@@H](NC(=O)[C@H](CC(=O)O)NC(=O)[C@H](CO)NC(=O)[C@@H](NC(=O)[C@H](Cc1ccccc1)NC(=O)[C@@H](NC(=O)CNC(=O)[C@H](CCC(=O)O)NC(=O)[C@H](C)NC(=O)[C@H](Cc1c[nH]cn1)NC(=O)[C@H](CCCNC(=N)N)NC(=O)[C@H](CCC(=O)O)NC(=O)[C@H](Cc1ccccc1)NC(=O)[C@@H](N)CCC(=O)O)[C@@H](C)O)[C@@H](C)O)C(C)C)C(=O)N[C@@H](C)C(=O)N[C@@H](Cc1c[nH]c2ccccc12)C(=O)N[C@@H](CC(C)C)C(=O)N[C@H](C(=O)N[C@@H](CCCCN)C(=O)NCC(=O)N[C@@H](CCCNC(=N)N)C(=O)NCC(=O)O)C(C)C [GLP-1(3-37)] |  | 70 nM | 81 nM |  |
| CC[C@H](C)[C@H](NC(=O)[C@H](Cc1ccccc1)NC(=O)[C@H](CCC(=O)O)NC(=O)[C@H](CCCCN)NC(=O)[C@H](C)NC(=O)[C@H](C)NC(=O)[C@H](CCC(N)=O)NC(=O)CNC(=O)[C@H](CCC(=O)O)NC(=O)[C@H](CC(C)C)NC(=O)[C@H](Cc1ccc(O)cc1)NC(=O)[C@H](CO)NC(=O)[C@H](CO)NC(=O)[C@@H](NC(=O)[C@H](CC(=O)O)NC(=O)[C@H](CO)NC(=O)[C@@H](NC(=O)[C@H](Cc1ccccc1)NC(=O)[C@@H](NC(=O)CNC(=O)[C@H](CCC(=O)O)NC(=O)[C@H](C)NC(=O)[C@H](Cc1c[nH]cn1)NC(=O)[C@H](CCCNC(=N)N)NC(=O)[C@@H](N)CCC(=O)O)[C@@H](C)O)[C@@H](C)O)C(C)C)C(=O)N[C@@H](C)C(=O)N[C@@H](Cc1c[nH]c2ccccc12)C(=O)N[C@@H](CC(C)C)C(=O)N[C@H](C(=O)N[C@@H](CCCCN)C(=O)NCC(=O)N[C@@H](CCCNC(=N)N)C(=O)NCC(=O)O)C(C)C [GLP-1(5-37)] |  | 150 nM |  |  |
| gastric inhibitory peptide [GIP] |  |  |  | ED50 nM Duplicate Assays (first value) ([1]; cAMP stimulation in RIN 1046-38 cells, first of duplicate assays): 10.0 nM; ED50 nM Duplicate Assays (second value) ([1]; cAMP stimulation in RIN 1046-38 cells, second of duplicate assays): 37.5 nM |
| CC[C@H](C)[C@H](NC(=O)[C@H](Cc1ccccc1)NC(=O)[C@H](CCC(=O)O)NC(=O)[C@H](CCCCN)NC(=O)[C@H](C)NC(=O)[C@H](C)NC(=O)[C@H](CCC(N)=O)NC(=O)CNC(=O)[C@H](CCC(=O)O)NC(=O)[C@H](CC(C)C)NC(=O)[C@H](Cc1ccc(O)cc1)NC(=O)[C@H](CO)NC(=O)[C@H](CO)NC(=O)[C@@H](NC(=O)[C@H](CC(=O)O)NC(=O)[C@H](CO)NC(=O)[C@@H](NC(=O)[C@H](Cc1ccccc1)NC(=O)[C@@H](NC(=O)CNC(=O)[C@H](CCC(=O)O)NC(=O)[C@H](C)NC(=O)[C@@H](N)CCCCN)[C@@H](C)O)[C@@H](C)O)C(C)C)C(=O)N[C@@H](C)C(=O)N[C@@H](Cc1c[nH]c2ccccc12)C(=O)N[C@@H](CC(C)C)C(=O)N[C@H](C(=O)N[C@@H](CCCCN)C(=O)NCC(=O)N[C@@H](CCCNC(=N)N)C(=O)NCC(=O)O)C(C)C [(K)^7 -GLP-1(7-37)] | - |  |  |  |
| CC[C@H](C)[C@H](NC(=O)[C@H](Cc1ccccc1)NC(=O)[C@H](CCC(=O)O)NC(=O)[C@H](CCCCN)NC(=O)[C@H](C)NC(=O)[C@H](C)NC(=O)[C@H](CCC(N)=O)NC(=O)CNC(=O)[C@H](CCC(=O)O)NC(=O)[C@H](CC(C)C)NC(=O)[C@H](Cc1ccc(O)cc1)NC(=O)[C@H](CO)NC(=O)[C@H](CO)NC(=O)[C@@H](NC(=O)[C@H](CC(=O)O)NC(=O)[C@H](CO)NC(=O)[C@@H](NC(=O)[C@H](Cc1ccccc1)NC(=O)[C@@H](NC(=O)CNC(=O)[C@H](CCC(=O)O)NC(=O)[C@H](C)NC(=O)[C@H](Cc1c[nH]cn1)NC(=O)[C@H](CCCNC(=N)N)NC(=O)[C@H](CCC(=O)O)NC(=O)[C@@H](N)Cc1ccccc1)[C@@H](C)O)[C@@H](C)O)C(C)C)C(=O)N[C@@H](C)C(=O)N[C@@H](Cc1c[nH]c2ccccc12)C(=O)N[C@@H](CC(C)C)C(=O)N[C@H](C(=O)N[C@@H](CCCCN)C(=O)NCC(=O)N[C@@H](CCCNC(=N)N)C(=O)NCC(=O)O)C(C)C [GLP-1(4-37)] |  | 130 nM | 200 nM |  |
| CC[C@H](C)[C@H](NC(=O)[C@H](Cc1ccccc1)NC(=O)[C@H](CCC(=O)O)NC(=O)[C@H](CCCCN)NC(=O)[C@H](C)NC(=O)[C@H](C)NC(=O)[C@H](CCC(N)=O)NC(=O)CNC(=O)[C@H](CCC(=O)O)NC(=O)[C@H](CC(C)C)NC(=O)[C@H](Cc1ccc(O)cc1)NC(=O)[C@H](CO)NC(=O)[C@H](CO)NC(=O)[C@@H](NC(=O)[C@H](CC(=O)O)NC(=O)[C@H](CO)NC(=O)[C@@H](NC(=O)[C@H](Cc1ccccc1)NC(=O)[C@@H](NC(=O)CNC(=O)[C@H](CCC(=O)O)NC(=O)[C@H](C)NC(=O)[C@H](Cc1c[nH]cn1)NC(=O)[C@H](CCCNC(=N)N)NC(=O)[C@H](CCC(=O)O)NC(=O)[C@H](Cc1ccccc1)NC(=O)[C@H](CCC(=O)O)NC(=O)[C@H](CC(=O)O)NC(=O)[C@@H](N)Cc1c[nH]cn1)[C@@H](C)O)[C@@H](C)O)C(C)C)C(=O)N[C@@H](C)C(=O)N[C@@H](Cc1c[nH]c2ccccc12)C(=O)N[C@@H](CC(C)C)C(=O)N[C@H](C(=O)N[C@@H](CCCCN)C(=O)NCC(=O)N[C@@H](CCCNC(=N)N)C(=O)NCC(=O)O)C(C)C [GLP-1(1-37)] |  | > 1000 nM | 2900 nM |  |

Continued, in another order:

| Resistance to Degradation [2] | Compound | ED50 nM Duplicate Assays (first value) [1] | ED50 nM Duplicate Assays (second value) [1] | also measured |
| --- | --- | --- | --- | --- |
| + | CC[C@H](C)[C@H](NC(=O)[C@H](Cc1ccccc1)NC(=O)[C@H](CCC(=O)O)NC(=O)[C@H](CCCCN)NC(=O)[C@H](C)NC(=O)[C@H](C)NC(=O)[C@H](CCC(N)=O)NC(=O)CNC(=O)[C@H](CCC(=O)O)NC(=O)[C@H](CC(C)C)NC(=O)[C@H](Cc1ccc(O)cc1)NC(=O)[C@H](CO)NC(=O)[C@H](CO)NC(=O)[C@@H](NC(=O)[C@H](CC(=O)O)NC(=O)[C@H](CO)NC(=O)[C@@H](NC(=O)[C@H](Cc1ccccc1)NC(=O)[C@@H](NC(=O)CNC(=O)[C@H](CCC(=O)O)NC(=O)[C@H](C)NC(=O)[C@H](Cc1c[nH]cn1)NC(C)C)[C@@H](C)O)[C@@H](C)O)C(C)C)C(=O)N[C@@H](C)C(=O)N[C@@H](Cc1c[nH]c2ccccc12)C(=O)N[C@@H](CC(C)C)C(=O)N[C@H](C(=O)N[C@@H](CCCCN)C(=O)NCC(=O)N[C@@H](CCCNC(=N)N)C(=O)NCC(=O)O)C(C)C [(N-isopropyl-H)^7 GLP-1(7-37), (N-isopropyl-H)^7 -GLP-1(7-37)] |  |  |  |
| - | HSQGTFTSDYSKYLDGQAAKEFIAWLVKGRG [(S)^8 (Q)^9 (Y)^16 (K)^18 (D)^21 -GLP-1(7-37)] |  |  |  |
| - | CC[C@H](C)[C@H](NC(=O)[C@H](Cc1ccccc1)NC(=O)[C@H](CCC(=O)O)NC(=O)[C@H](CCCCN)NC(=O)[C@H](C)NC(=O)[C@H](C)NC(=O)[C@H](CCC(N)=O)NC(=O)CNC(=O)[C@H](CCC(=O)O)NC(=O)[C@H](CC(C)C)NC(=O)[C@H](Cc1ccc(O)cc1)NC(=O)[C@H](CO)NC(=O)[C@H](CO)NC(=O)[C@@H](NC(=O)[C@H](CC(=O)O)NC(=O)[C@H](CO)NC(=O)[C@@H](NC(=O)[C@H](Cc1ccccc1)NC(=O)[C@@H](NC(=O)CNC(=O)[C@H](CCC(N)=O)NC(=O)[C@H](C)NC(=O)[C@@H](N)Cc1c[nH]cn1)[C@@H](C)O)[C@@H](C)O)C(C)C)C(=O)N[C@@H](C)C(=O)N[C@@H](Cc1c[nH]c2ccccc12)C(=O)N[C@@H](CC(C)C)C(=O)N[C@H](C(=O)N[C@@H](CCCCN)C(=O)NCC(=O)N[C@@H](CCCNC(=N)N)C(=O)NCC(=O)O)C(C)C [(Q)^9 GLP-1 (7-37)] |  |  |  |
| + | CC[C@H](C)[C@H](NC(=O)[C@H](Cc1ccccc1)NC(=O)[C@H](CCC(=O)O)NC(=O)[C@H](CCCCN)NC(=O)[C@H](C)NC(=O)[C@H](C)NC(=O)[C@H](CCC(N)=O)NC(=O)CNC(=O)[C@H](CCC(=O)O)NC(=O)[C@H](CC(C)C)NC(=O)[C@H](Cc1ccc(O)cc1)NC(=O)[C@H](CO)NC(=O)[C@H](CO)NC(=O)[C@@H](NC(=O)[C@H](CC(=O)O)NC(=O)[C@H](CO)NC(=O)[C@@H](NC(=O)[C@H](Cc1ccccc1)NC(=O)[C@@H](NC(=O)CNC(=O)[C@H](CCC(=O)O)NC(=O)[C@H](C)NC(=O)[C@H](CCCCN)NC(C)=O)[C@@H](C)O)[C@@H](C)O)C(C)C)C(=O)N[C@@H](C)C(=O)N[C@@H](Cc1c[nH]c2ccccc12)C(=O)N[C@@H](CC(C)C)C(=O)N[C@H](C(=O)N[C@@H](CCCCN)C(=O)NCC(=O)N[C@@H](CCCNC(=N)N)C(=O)NCC(=O)O)C(C)C [(N-acetyl-K)^7 GLP-1 (7-37)] |  |  |  |
